Results reported in patent publication US11518764B2, “Substituted heteroaryls as inhibitors of the BCL6 BTB domain protein-protein interaction” (Ontario Institute for Cancer Research (OICR), priority 2018, dated 2022).

target: BCL6 BTB domain (Homo sapiens (Human), UniProt P41182); assay: Surface plasmon resonance (SPR) assay; type: binding; conditions: BCL6 BTB domain captured on SA chip, single cycle kinetics

Row | SMILES | Kd [nM]
1 | C[C@H]1CN(C2COC2)CCN1c1cc(NC(=O)Cn2cc(-c3cc(Cl)c(O)c(C(N)=O)c3)c3c(=O)n(C)cnc32)c(Cl)cn1 [Compound I-345] | 6.15
2 | Cn1cnc2c(c(-c3cc(C(N)=O)c(O)c(F)c3F)cn2CC(=O)Nc2cc(N3CCOCC3)ncc2Cl)c1=O [Compound I-178] | 62.1
3 | C[C@H]1COCCN1c1cc(NC(=O)Cn2cc(-c3cc(Cl)c(O)c(C(N)=O)c3)c3c(=O)n(C)ccc32)c(Cl)cn1 [Compound I-138] | 178
4 | CO[C@@H]1CN(c2cc(NC(=O)Cn3cc(-c4cc(C(N)=O)c(O)c(F)c4F)c4c(=O)n(C)cnc43)c(Cl)cn2)C[C@@H]1F [Compound I-366] | 35.2
5 | CO[C@@H]1CN(c2cc(NC(=O)Cn3cc(-c4cc(Cl)c(O)c(C(N)=O)c4)c4c(=O)n(C)c(C(F)(F)F)nc43)c(Cl)cn2)C[C@@H]1F [Compound I-386] | 153
6 | Cc1nc2c(c(-c3cc(C(N)=O)c(O)c(F)c3F)cn2CC(=O)Nc2cc(N3CCOC[C@@H]3C)ncc2Cl)c(=O)n1C [Compound I-249] | 77.3
7 | CCN1CCN(c2cc(NC(=O)Cn3cc(-c4cc(Cl)c(O)c(C(N)=O)c4)c4c(=O)n(C)cnc43)c(Cl)cn2)[C@@H](C)C1 [Compound I-331] | 17.8
8 | Cn1cnc2c(c(-c3cc(Cl)c(O)c(C(N)=O)c3)cn2CC(=O)Nc2cc(N3CCCC4(CCOCC4)C3)ncc2Cl)c1=O [Compound I-156] | 49.6
9 | CCN1CCN(c2cc(NC(=O)Cn3cc(-c4cc(Cl)c(O)c(C(N)=O)c4)c4c(=O)n(C)cnc43)c(Cl)c(F)n2)[C@@H](C)C1 [Compound I-427] | 13.8
10 | C=Cc1cc(NC(=O)Cn2cc(-c3cc(Cl)c(O)c(C(N)=O)c3)c3c(=O)n(C)cnc32)c(Cl)cn1 [Compound I-209] | 51
11 | Cc1nc2c(c(-c3cc(C(N)=O)c(O)c(F)c3F)cn2CC(=O)Nc2cc(N3CCN(C)CC3)ncc2Cl)c(=O)n1C [Compound I-305] | 70.5
12 | COc1c(O)c(C(N)=O)cc(-c2cn(CC(=O)Nc3cc(N4C[C@@H](C)O[C@@H](C)C4)ncc3Cl)c3ncn(C)c(=O)c23)c1F [Compound I-172] | 167
13 | C[C@@H]1COC[C@H](C)N1c1cc(NC(=O)Cn2cc(-c3cc(Cl)c(O)c(C(N)=O)c3)c3c(=O)n(C)cnc32)c(Cl)cn1 [Compound I-264] | 30.3
14 | Cn1cnc2c(c(-c3cc(F)c(O)c(C(N)=O)c3)cn2CC(=O)Nc2cc(N3CCOCC3)c(F)cc2Cl)c1=O [Compound I-219] | 70.9
15 | Cn1cnc2c(c(-c3cc(F)c(O)c(C(N)=O)c3)cn2CC(=O)Nc2cc(N3CC4CC3CO4)ncc2Cl)c1=O (stereo not drawn) [Compound I-284] | 23.4
16 | CN1CCN(c2cc(NC(=O)Cn3cc(-c4cc(C(N)=O)c(O)c(Cl)c4F)c4c(=O)n(C)cnc43)c(Cl)cn2)CC1 [Compound I-188] | 435

tested on: BCL6 reporter construct (3xBCL6-TK-Luc) in SuDHL4 cells; assay: Cell-based luciferase assay; conditions: Homo sapiens, SU-DHL-4, 48 h, read-out: Luciferase-Assay EC50, uM), SuDHL4-3xBCL6-TK-Luc cells, two days, high dose 10 uM
Method: Cell-Based Luciferase Assay
A BCL6 reporter construct containing three copies of the consensus BCL6 binding site, the TK promoter, and the firefly luciferase gene was stably expressed in SuDHL4 cells after lentivirus infection and selection with Blasticidin. SuDHL4-3×BCL6-TK-Luc cells were seeded into a Viewplate 384-well assay dish at 15,000 cells/well in 25 ul medium (Alpha-MEM high glucose containing 10% FBS, 25 mM HEPES, […] GlutaMAX, 100 ug/ml Normocin, and […] Gentamycin, Invitrogen). A HP D300 digital dispenser was used to dose cells with DMSO or test compounds across a 10-point range of concentrations (high dose of 10 uM), and cultures were grown in a humidified 5% CO2 incubator at 37° C. After two days, plates were removed from the incubator and equilibrated to room temperature. An equal volume of neolite reporter gene assay reagent was added to each well, and samples were processed according to manufacturer's instructions (Perkin Elmer). Luminescent signal was measured using an Envision plate reader equipped with a US-Luminescence detector.

Row | SMILES | EC50 [µM]
17 | C[C@H]1CN(C2COC2)CCN1c1cc(NC(=O)Cn2cc(-c3cc(Cl)c(O)c(C(N)=O)c3)c3c(=O)n(C)cnc32)c(Cl)cn1 [Compound I-345] | 0.0927
18 | Cn1cnc2c(c(-c3cc(C(N)=O)c(O)c(F)c3F)cn2CC(=O)Nc2cc(N3CCOCC3)ncc2Cl)c1=O [Compound I-178] | 0.96
19 | C[C@H]1COCCN1c1cc(NC(=O)Cn2cc(-c3cc(Cl)c(O)c(C(N)=O)c3)c3c(=O)n(C)ccc32)c(Cl)cn1 [Compound I-138] | 1.74
20 | CO[C@@H]1CN(c2cc(NC(=O)Cn3cc(-c4cc(C(N)=O)c(O)c(F)c4F)c4c(=O)n(C)cnc43)c(Cl)cn2)C[C@@H]1F [Compound I-366] | 0.899
21 | CO[C@@H]1CN(c2cc(NC(=O)Cn3cc(-c4cc(Cl)c(O)c(C(N)=O)c4)c4c(=O)n(C)c(C(F)(F)F)nc43)c(Cl)cn2)C[C@@H]1F [Compound I-386] | 1.01
22 | Cc1nc2c(c(-c3cc(C(N)=O)c(O)c(F)c3F)cn2CC(=O)Nc2cc(N3CCOC[C@@H]3C)ncc2Cl)c(=O)n1C [Compound I-249] | 0.689
23 | CCN1CCN(c2cc(NC(=O)Cn3cc(-c4cc(Cl)c(O)c(C(N)=O)c4)c4c(=O)n(C)cnc43)c(Cl)cn2)[C@@H](C)C1 [Compound I-331] | 0.254
24 | Cn1cnc2c(c(-c3cc(Cl)c(O)c(C(N)=O)c3)cn2CC(=O)Nc2cc(N3CCCC4(CCOCC4)C3)ncc2Cl)c1=O [Compound I-156] | 0.941
25 | CCN1CCN(c2cc(NC(=O)Cn3cc(-c4cc(Cl)c(O)c(C(N)=O)c4)c4c(=O)n(C)cnc43)c(Cl)c(F)n2)[C@@H](C)C1 [Compound I-427] | 0.156
26 | C=Cc1cc(NC(=O)Cn2cc(-c3cc(Cl)c(O)c(C(N)=O)c3)c3c(=O)n(C)cnc32)c(Cl)cn1 [Compound I-209] | 0.296
27 | Cc1nc2c(c(-c3cc(C(N)=O)c(O)c(F)c3F)cn2CC(=O)Nc2cc(N3CCN(C)CC3)ncc2Cl)c(=O)n1C [Compound I-305] | 0.647
28 | COc1c(O)c(C(N)=O)cc(-c2cn(CC(=O)Nc3cc(N4C[C@@H](C)O[C@@H](C)C4)ncc3Cl)c3ncn(C)c(=O)c23)c1F [Compound I-172] | 0.797
29 | C[C@@H]1COC[C@H](C)N1c1cc(NC(=O)Cn2cc(-c3cc(Cl)c(O)c(C(N)=O)c3)c3c(=O)n(C)cnc32)c(Cl)cn1 [Compound I-264] | 0.347
30 | Cn1cnc2c(c(-c3cc(F)c(O)c(C(N)=O)c3)cn2CC(=O)Nc2cc(N3CCOCC3)c(F)cc2Cl)c1=O [Compound I-219] | 0.535
31 | Cn1cnc2c(c(-c3cc(F)c(O)c(C(N)=O)c3)cn2CC(=O)Nc2cc(N3CC4CC3CO4)ncc2Cl)c1=O (stereo not drawn) [Compound I-284] | 0.628
32 | CN1CCN(c2cc(NC(=O)Cn3cc(-c4cc(C(N)=O)c(O)c(Cl)c4F)c4c(=O)n(C)cnc43)c(Cl)cn2)CC1 [Compound I-188] | 4.75

tested on: Karpas422 cells; assay: Tumor cell growth inhibition assay; type: cell-based; conditions: Homo sapiens, KARPAS-422, 144 h, read-out: Tumor Growth Inhibition in Karpas-422 (IC50, uM), Karpas422 cells, six days, ATPlite
Method: Tumor Cell Growth inhibition Assay
Karpas422 cells were seeded into a 96-well plate at 2,000 cells/well in 150 ul medium (Alpha-MEM containing 10% FBS, […] Normocin, and […] Gentamycin, Invitrogen). A HP D300 digital dispenser was used to dose cells with DMSO or test compounds across a 10-point range of concentrations (high dose of 5 uM), and cultures were grown in a humidified 5% CO2 incubator at 37° C. After six days, plates were removed from incubator and equilibrated to room temperature. An equal volume of ATPlite assay reagent was added to each well, and samples were processed according to manufacturer's instructions (Perkin Elmer). Luminescent signal was measured using an Envision plate reader equipped with a US-Luminescence detector.

Row | SMILES | IC50 [µM]
33 | C[C@H]1CN(C2COC2)CCN1c1cc(NC(=O)Cn2cc(-c3cc(Cl)c(O)c(C(N)=O)c3)c3c(=O)n(C)cnc32)c(Cl)cn1 [Compound I-345] | 0.166
34 | Cn1cnc2c(c(-c3cc(C(N)=O)c(O)c(F)c3F)cn2CC(=O)Nc2cc(N3CCOCC3)ncc2Cl)c1=O [Compound I-178] | 0.877
35 | C[C@H]1COCCN1c1cc(NC(=O)Cn2cc(-c3cc(Cl)c(O)c(C(N)=O)c3)c3c(=O)n(C)ccc32)c(Cl)cn1 [Compound I-138] | 1.72
36 | CO[C@@H]1CN(c2cc(NC(=O)Cn3cc(-c4cc(C(N)=O)c(O)c(F)c4F)c4c(=O)n(C)cnc43)c(Cl)cn2)C[C@@H]1F [Compound I-366] | 0.978
37 | CO[C@@H]1CN(c2cc(NC(=O)Cn3cc(-c4cc(Cl)c(O)c(C(N)=O)c4)c4c(=O)n(C)c(C(F)(F)F)nc43)c(Cl)cn2)C[C@@H]1F [Compound I-386] | 0.772
38 | Cc1nc2c(c(-c3cc(C(N)=O)c(O)c(F)c3F)cn2CC(=O)Nc2cc(N3CCOC[C@@H]3C)ncc2Cl)c(=O)n1C [Compound I-249] | 0.736
39 | CCN1CCN(c2cc(NC(=O)Cn3cc(-c4cc(Cl)c(O)c(C(N)=O)c4)c4c(=O)n(C)cnc43)c(Cl)cn2)[C@@H](C)C1 [Compound I-331] | 0.176
40 | Cn1cnc2c(c(-c3cc(Cl)c(O)c(C(N)=O)c3)cn2CC(=O)Nc2cc(N3CCCC4(CCOCC4)C3)ncc2Cl)c1=O [Compound I-156] | 0.576
41 | CCN1CCN(c2cc(NC(=O)Cn3cc(-c4cc(Cl)c(O)c(C(N)=O)c4)c4c(=O)n(C)cnc43)c(Cl)c(F)n2)[C@@H](C)C1 [Compound I-427] | 0.114
42 | C=Cc1cc(NC(=O)Cn2cc(-c3cc(Cl)c(O)c(C(N)=O)c3)c3c(=O)n(C)cnc32)c(Cl)cn1 [Compound I-209] | 0.343
43 | Cc1nc2c(c(-c3cc(C(N)=O)c(O)c(F)c3F)cn2CC(=O)Nc2cc(N3CCN(C)CC3)ncc2Cl)c(=O)n1C [Compound I-305] | 1.32
44 | COc1c(O)c(C(N)=O)cc(-c2cn(CC(=O)Nc3cc(N4C[C@@H](C)O[C@@H](C)C4)ncc3Cl)c3ncn(C)c(=O)c23)c1F [Compound I-172] | 1.34
45 | C[C@@H]1COC[C@H](C)N1c1cc(NC(=O)Cn2cc(-c3cc(Cl)c(O)c(C(N)=O)c3)c3c(=O)n(C)cnc32)c(Cl)cn1 [Compound I-264] | 0.376
46 | Cn1cnc2c(c(-c3cc(F)c(O)c(C(N)=O)c3)cn2CC(=O)Nc2cc(N3CCOCC3)c(F)cc2Cl)c1=O [Compound I-219] | 0.216
47 | Cn1cnc2c(c(-c3cc(F)c(O)c(C(N)=O)c3)cn2CC(=O)Nc2cc(N3CC4CC3CO4)ncc2Cl)c1=O (stereo not drawn) [Compound I-284] | 0.75
48 | CN1CCN(c2cc(NC(=O)Cn3cc(-c4cc(C(N)=O)c(O)c(Cl)c4F)c4c(=O)n(C)cnc43)c(Cl)cn2)CC1 [Compound I-188] | 2.95
